In US8399490B2, “Insecticides” (Syngenta Crop Protection LLC, priority 2007, dated 2013):

Key:
Format in all cases: in vivo
[1] = test system: Spodoptera littoralis (Egyptian cotton leafworm); assay: Example B1: Activity against Spodoptera littoralis (larvicide, feeding/residual contact activity, preventive), cotton leaf discs; details: foliar, 72 h, L1 larvae on cotton leaf discs, 3 days after treatment
Text: Activity Against Spodoptera littoralis (Egyptian Cotton Leafworm)
(Larvicide, Feeding/Residual Contact Activity, Preventive)
The samples are checked for mortality, repellent effect, feeding behaviour, and growth regulation 3 days after treatment. In this test, compounds listed in Table P above show good activity. In particular compounds P.1, P.2, P.3, P.4, P.5, P.6, P.7, P.8, P.9, P.10, P.11, P.12, P.13, P.14, P.15, P.16, P.17, P.18, P.19, P.20, P.21, P.22, P.23, P.24, P.25, P.26, P.27, P.28, P.29, P.30, P.31, P.32, P.33, P.34, P.35, P.36, P.37, P.38, P.39, P.40, P.41, P.42, P.43, P.44, P.46, P.50, P.51, P.52, P.55, P.56, P.57, P.58, P.59, P.60, P61, P.66, P.67, P.68, P.69, P.70, P.71, P.72, P.73, P.74, P.75, P.76, P.77, P.78, P.83, P.84, P.87 and P.88 show an activity of over 80% at a concentration of 400 ppm.

[2] = test system: Heliothis virescens (tobacco budworm); assay: Example B2: Activity against Heliothis virescens (ovo-larvicide, feeding/contact activity, curative), eggs on artificial diet; details: 96 h, 4 days incubation
Procedure: Activity Against Heliothis virescens (Tobacco Budworm) (Ovo-Larvicide, Feeding/Contact Activity, Curative) Eggs (0-24 h old) are placed in 24-well microtiter plate on artificial diet and treated with test solutions by pipetting. After an incubation period of 4 days, samples are checked for egg mortality, larval mortality, and growth regulation.

[3] = test system: Plutella xylostella (diamond back moth); assay: Example B3: Plutella xylostella (larvicide, feeding/residual contact activity, preventive), artificial diet MTP; details: 120 h, L2 larvae on artificial diet, 5 days incubation
Procedure: Plutella xylostella (Diamond Back Moth) (Larvicide, Feeding/Residual Contact Activity, Preventive) 24-well microtiter plate (MTP) with artificial diet is treated with test solutions by pipetting. After drying, the MTP's are infested with larvae (L2) (10-15 per well). After an incubation period of 5 days, samples are checked for larval mortality, antifeedant and growth regulation.

[4] = test system: Diabrotica balteata (corn root worm); assay: Example B4: Diabrotica balteata (larvicide, feeding/residual contact activity, preventive), artificial diet MTP; details: 120 h, L2 larvae on artificial diet, 5 days incubation
Procedure: Diabrotica balteata (Corn Root Worm) (Larvicide, Feeding/Residual Contact Activity, Preventive) 24-well microtiter plate (MTP) with artificial diet is treated with test solutions by pipetting. After drying, the MTP's are infested with larvae (L2) (6-10 per well). After an incubation period of 5 days, samples are checked for larval mortality, antifeedant and growth regulation.

Measured: pest or weed control at 400 ppm

CCc1cc2c(c(C(=O)NC(C)C)c1NC(=O)c1cc(Br)nn1-c1ncccc1Cl)OC(F)(F)O2 [P.34]
> 80%: [1] | [2] | [3]

CNC(=O)c1c(NC(=O)c2cc(OC)nn2-c2ncccc2Cl)c(Br)cc2c1OC(F)(F)O2 [P.39]
> 80%: all assays above

O=C(NC1(C2CC2)CC1)c1c(NC(=O)c2cc(Br)nn2-c2ncccc2Cl)c(Cl)cc2c1OCO2 [P.11]
> 80%: all assays above

CNC(=O)c1c(NC(=O)c2cc(Br)nn2-c2ncccc2Cl)ccc2c1S(=O)(=O)C(C)C2 (centres unmarked) [P.59]
> 80%: [1] | [2] | [3]

Cc1cc2c(c(C(=O)NC3(C4CC4)CC3)c1NC(=O)c1cc(Br)nn1-c1ncccc1Cl)OCO2 [P.78]
> 80%: all assays above

CCNC(=O)c1c(NC(=O)c2cc(C(F)(F)F)nn2-c2ncccc2Cl)c(C)cc2c1OCO2 [P.68]
> 80%: all assays above

COc1cc(C(=O)Nc2c(C)cc3c(c2C(=O)NC(C)C)OC(F)(F)O3)n(-c2ncccc2Cl)n1 [P.36]
> 80%: all assays above

CC(C)NC(=O)c1c(NC(=O)c2cc(C(F)F)nn2-c2ncccc2Cl)c(Br)cc2c1OC(C)C2 (centres unmarked) [P.84]
> 80%: [1] | [2] | [3]

CNC(=O)c1c(NC(=O)c2cc(Br)nn2-c2ncccc2Cl)c(Br)cc2c1OC(F)(F)O2 [P.41]
> 80%: all assays above

Cc1cc2c(c(C(=O)NC(C)(C)C)c1NC(=O)c1cc(C(F)(F)F)nn1-c1ncccc1Cl)OCO2 [P.70]
> 80%: all assays above

CC(C)NC(=O)c1c(NC(=O)c2cc(C(F)(F)F)nn2-c2ncccc2Cl)c(Cl)cc2c1C(F)CC2 (centres unmarked) [P.49]
> 80%: [2] | [3] | [4]

CCc1cc2c(c(C(=O)NC)c1NC(=O)c1cc(Br)nn1-c1ncccc1Cl)OC(F)(F)O2 [P.33]
> 80%: [1] | [2] | [3]

CNC(=O)c1c(NC(=O)c2cc(OC)nn2-c2ncccc2Cl)c(C)cc2c1OC(F)(F)O2 [P.35]
> 80%: [1] | [2] | [3]

Cc1cc2c(c(C(=O)NC3(C4CC4)CC3)c1NC(=O)c1cc(Cl)nn1-c1ncccc1Cl)OC(F)(F)O2 [P.32]
> 80%: all assays above

CC(C)NC(=O)c1c(NC(=O)c2cc(Br)nn2-c2ncccc2Cl)c(Cl)cc2c1C(F)CC2 (centres unmarked) [P.56]
> 80%: [1] | [2] | [3]

CC(C)NC(=O)c1c(NC(=O)c2cc(Br)nn2-c2ncccc2Cl)c(Cl)cc2c1C(O)CC2 (centres unmarked) [P.54]
> 80%: [2] | [3] | [4]

O=C(NC1(C2CC2)CC1)c1c(NC(=O)c2cc(Cl)nn2-c2ncccc2Cl)c(Cl)cc2c1OC(F)(F)O2 [P.25]
> 80%: all assays above

Cc1cc2c(c(C(=O)NC(C)C)c1NC(=O)c1cc(C(F)(F)F)nn1-c1ncccc1Cl)OCO2 [P.67, 5-methyl-6-{[2-(3-chloro-pyridin-2-yl)-5-trifluoromethyl-2H-pyrazole-3-carbonyl]-amino}-2,4-dioxolane-benzoic acid isopropylamide]
> 80%: all assays above

O=C(NC1(C2CC2)CC1)c1c(NC(=O)c2cc(C(F)(F)F)nn2-c2ncccc2Cl)c(Cl)cc2c1C(O)CC2 (centres unmarked) [P.51]
> 80%: [1] | [2] | [3]

COc1cc(C(=O)Nc2c(Cl)cc3c(c2C(=O)NC2(C4CC4)CC2)OCO3)n(-c2ncccc2Cl)n1 [P.7]
> 80%: [1] | [2] | [3]

CNC(=O)c1c(NC(=O)c2cc(OC)nn2-c2ncccc2Cl)c(Cl)cc2c1OC(F)(F)O2 [P.37]
> 80%: all assays above

CCNC(=O)c1c(NC(=O)c2cc(Cl)nn2-c2ncccc2Cl)c(Cl)cc2c1OCO2 [P.8]
> 80%: all assays above

CCNC(=O)c1c(NC(=O)c2cc(OCC(F)(F)F)nn2-c2ncccc2Cl)c(Cl)cc2c1OCO2 [P.58]
> 80%: [1] | [2] | [3]

CC1Cc2ccc(NC(=O)c3cc(Br)nn3-c3ncccc3Cl)c(C(=O)NC3CC3)c2S1(=O)=O (centres unmarked) [P.61]
> 80%: [1] | [2] | [3]

CC(C)NC(=O)c1c(NC(=O)c2cc(C(F)(F)F)nn2-c2ncccc2Cl)c(Cl)cc2c1C(O)CC2 (centres unmarked) [P.48]
> 80%: [3]

O=C(NC1(C2CC2)CC1)c1c(NC(=O)c2cc(Br)nn2-c2ncccc2Cl)c(Cl)cc2c1C(F)CC2 (centres unmarked) [P.55]
> 80%: [1] | [2] | [3]

CNC(=O)c1c(NC(=O)c2cc(Cl)nn2-c2ncccc2Cl)c(Cl)cc2c1OCO2 [P.9]
> 80%: [1] | [2] | [3]

O=C1CCc2cc(Cl)c(NC(=O)c3cc(Br)nn3-c3ncccc3Cl)c(C(=O)NC3(C4CC4)CC3)c21 [P.53]
> 80%: [3]

CC(C)NC(=O)c1c(NC(=O)c2cc(C(F)(F)F)nn2-c2ncccc2Cl)c(Cl)cc2c1/C(=N/O)CC2 [P.52]
> 80%: [1] | [2] | [3]

CC(C)NC(=O)c1c(NC(=O)c2cc(Br)nn2-c2ncccc2Cl)c(Br)cc2c1S(=O)(=O)C(C)C2 (centres unmarked) [P.87]
> 80%: [1] | [2] | [3]

CCNC(=O)c1c(NC(=O)c2cc(C(F)F)nn2-c2ncccc2Cl)c(C)cc2c1OCO2 [P.72]
> 80%: [1] | [2] | [3]
